Measured values as given in US20160082036A1, “HYDROXYALKYL STARCH FOR THE TREATMENT OF CANCERS BY REDUCTION OF TUMOR GROWTH RATES” (Fresenius Kabi Deutschland GmbH, priority 2012, published 2016).
Entries after “also recorded” stand apart in the source; their conditions may differ.

Key:
[1] = Example 6.2: body weight of LXFE 397 tumor-bearing mice; assay type: in vivo, NMRI nu/nu mice; conditions: FIG. 16
Protocol: The application volume was 20 ml/kg mouse body weight for saline and Voluven® 10% (i.v.) and 100 mg/kg for Capecitabine (p.o.).

[2] = Example 6.1: body weight of LXFL 529 tumor-bearing mice; assay type: in vivo, NMRI nu/nu mice; conditions: FIG. 14
Protocol: The application volume was 20 ml/kg mouse body weight for saline and Voluven® 10% and 10 ml/kg of the 1 mg/ml solution for Everolimus (administered final dose 10 mg/kg). The route of administration was by i.v. injection into the tail vein for saline and Voluven® 10%. 10 mg/kg of body weight Everolimus was administered p.o.

[3] = tested on: human prostate carcinoma cell line PC-3; assay: Example 4: PC-3 xenograft tumor growth in nude mice; assay type: in vivo; conditions: 3 week observation period; FIG. 5
Protocol: In another study which was performed in analogy to the study described above, the effect of “Voluven 10%” was tested on a different cancer cell line, i.e. on prostate cancer cell line PC3.
The rapidly growing human prostate carcinoma cell line PC-3 was used as xenograft tumor model in nude mice to test the efficacy of Voluven® 10% on reduction of tumour growth rates. Paclitaxel was employed as positive control and saline as negative control.
• Strain: NMRI nude (homozygous)-Rj:NMRI-nu • Sex: Female • Supplier: Elevage Janvier, Route des Chènes Secs, 53940 Le Genest St. Isle, France • Health status: SPF • Age at delivery: 5-6 weeks • Acclimatization: At least 6 days […]
Tumor measurement: The tumor growth was measured three times a week (e.g. Monday, Wednesday, and Friday) beginning with study day 3 (tumor measurable at size approx. 3 mm in diameter). Tumor volumes were calculated according to V=(length×(width)^2)/2. […]
To prepare the paclitaxel solution at a concentration of 2.5 mg/ml the paclitaxel stock solution (6 mg/ml) was diluted with 0.9% isotonic saline. […] Saline and Voluven® 10% were provided as ready-to-use formulations. […]
Statistical analyses of data were performed for each group separately. Group medians were calculated for body weights and tumor measurements for each investigation time. […] For the evaluation of tumor volume/area and T/C values were calculated using Microsoft Excel 7.0.

SMILES: CCCCCOC(=O)Nc1nc(=O)n([C@@H]2O[C@H](C)[C@@H](O)[C@H]2O)cc1F [Capecitabine]
- body weight (in words) [1]: not reduced

SMILES: CO[C@H]1C[C@@H]2CC[C@@H](C)[C@@](O)(O2)C(=O)C(=O)N2CCCC[C@H]2C(=O)O[C@H]([C@H](C)C[C@@H]2CC[C@@H](OCCO)[C@H](OC)C2)CC(=O)[C@H](C)/C=C(\C)[C@@H](O)[C@@H](OC)C(=O)[C@H](C)C[C@H](C)/C=C/C=C/C=C/1C [Everolimus]
- body weight (in words) [2]: slight reduction

SMILES: CC(=O)O[C@H]1C(=O)[C@@]2(C)[C@H]([C@H](OC(=O)c3ccccc3)[C@]3(O)C[C@H](OC(=O)[C@H](O)[C@@H](NC(=O)c4ccccc4)c4ccccc4)C(C)=C1C3(C)C)[C@]1(OC(C)=O)CO[C@@H]1C[C@@H]2O [paclitaxel, Paclitaxel]
- effect on tumor volume (in words) [3]: stable tumour size or reduced the tumor volume; also recorded: decrease of the initial tumor volume
